Assay results from patent publication US11465984B2, “Compound having ERK kinase inhibitory activity and use thereof” (SHANGHAI HAIHE PHARMACEUTICAL CO., LTD., priority 2017, dated 2022).
Read-outs that look alike come from different tables or passages of the source.

Molecular target: ERK2 kinase (Homo sapiens (Human), UniProt P28482)
Assay: In vitro enzyme activity assay, ERK2 kinase (Z'-LYTE)
Format: biochemical
Experimental: Half inhibitory activity of the compounds of the invention against ERK2 kinase (IC50 value) was determined in this Example.
• Enzyme: extracellular signal-regulated kinase ERK2 kinase (PV3595, Invitrogen) • Kit: Z′-LYTE® Protein Kinase Assay Kit-Ser/Thr 3 Peptide (PV3176, Invitrogen) • Kit components: The substrate Z′-LYTE™ Ser/Thr 3 Peptide (PV3200) • The phosphorylation substrate Z′-LYTE™ Ser/Thr 3 Phospho-peptide (PV3215) • 5× kinase buffer: 250 mM HEPES (pH 7.5), 50 mM MgCl2, • 5 mM EGTA, 0.05% BRIJ-35 (PV3189, Invitrogen) • ATP (PV3227, Invitrogen) • Development Reagent A (PV3295, Invitrogen) • Development Buffer (P3127, Invitrogen) • Stop Reagent (P3094, Invitrogen) • Microplate reader: The multil-mode microplate reader PerkinElmer EnVision® • Microplate: black shallow 384-well microplate (6008269, PerkinElmer) (2). Assay Protocol:
The substrate Z′-LYTE™ Ser/Thr 3 Peptide, the phosphorylation substrate Z′-LYTE™ Ser/Thr 3 Phospho-peptide, 1× kinase buffer (5× kinase buffer was diluted with ultra pure water by five times), ATP, Development Reagent A, Development Buffer, Stop Reagent were balanced to room temperature for use. The screening concentrations for detecting the effect of the compounds of the invention on the ERK kinase activity were seven 3-fold serial dilutions starting from 1 μM (from 0.2 μM for the positive drug control) using 4% DMSO as co-solvent. 5 μL enzyme system (50 mM HEPES pH 7.5, 1 mM EGTA, 10 mM MgCl2, 0.01% Brij-35, 4 uM substrate, 0.8 ng/μL enzyme), 2.5 μL Compound, 2.5 μL 400 μM ATP were added into 384 well microplate, followed by incubation at room temperature for 60 min in the dark. After the reaction was completed, 5 μl the developing agent (Development Reagent A) diluted with the developing buffer (Development Buffer) was added to all reaction wells, followed by incubation at the room temperature for 60 min in the dark. 5 μL the terminating agent was added to each well to terminate the reaction. The fluorescence was determined using the multil-mode microplate reader PerkinElmer EnVision® (excitation wavelength 400 nm, emission wavelength 460 nm and 528 nm).
The inhibition rate of each well was calculated from 100% phosphorylation substrate well and 0% phosphorylation substrate well using the data analysis method below: phosphorylation %=1−{(emission rate×F100%−C100%)/[C0%−C100%+emission rate×(F100%−F0%)]}×100 inhibition %=100×(1−phosphorylation % of the test compound well/phosphorylation % of the 0% inhibition control) • wherein: • emission rate=fluorescence emission of the sample at 445 nm/fluorescence emission of the sample at 520 nm • F100%=the average fluorescence emission of the control well of 100% phosphorylation substrate at 520 nm • F0%=the average fluorescence emission of the control well of 0% phosphorylation substrate at 520 nm • C100%=the average fluorescence emission of the control well of 100% phosphorylation substrate at 445 nm • C0%=the average fluorescence emission of the control well of 0% phosphorylation substrate at 445 nm
Tests were carried out in duplicate. IC50 values were calculated from the inhibition of the kinase by the test compounds at a range of different concentrations.

[1] = class symbols, read-out: ERK2 IC50
[2] = read-out: IC50 against ERK2 kinase

Chain of ERK2 kinase (P28482 whole entry): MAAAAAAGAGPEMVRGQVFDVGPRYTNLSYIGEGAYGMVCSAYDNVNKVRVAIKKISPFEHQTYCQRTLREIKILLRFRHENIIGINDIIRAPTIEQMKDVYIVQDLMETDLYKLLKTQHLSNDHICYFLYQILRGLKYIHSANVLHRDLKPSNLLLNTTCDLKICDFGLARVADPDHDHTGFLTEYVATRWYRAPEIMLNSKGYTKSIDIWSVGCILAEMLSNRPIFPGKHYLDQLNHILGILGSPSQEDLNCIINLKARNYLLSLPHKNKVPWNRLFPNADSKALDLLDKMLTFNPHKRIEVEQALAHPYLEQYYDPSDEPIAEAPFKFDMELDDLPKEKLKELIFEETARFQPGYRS

IC50 [1] [nM]	IC50 [2] [nM]	SMILES
100 to 1000	–	O=C(Cc1cccnc1Cl)N1CCc2cc(-c3ccnc(NC4CC(O)C4)c3)cc(F)c21 (racemic) [Example P53, 2-(2-chloropyridin-3-yl)-1-(7-fluoro-5-(2-((3-hydroxylcyclobutyl)amino)pyridin-4-yl)indolin-1-yl)ethan-1-one]
100 to 1000	–	CC(CO)Nc1nccc(-c2cc(F)c3c(c2)CCN3C(=O)Cc2cccnc2Cl)n1 (stereo not shown) [Example P1, 2-(2-chloropyridin-3-yl)-1-(7-fluoro-5-(2-((1-hydroxylprop-2-yl)amino)pyrimidin-4-yl)indolin-1-yl)ethan-1-one]
10 to 100	–	O=C(Cc1cccnc1Cl)N1CCc2cc(-c3ccnc(NCCO)n3)cc(F)c21 [Example P2, 2-(2-chloropyridin-3-yl)-1-(7-fluoro-5-(2-((2-hydroxylethyl)amino)pyrimidin-4-yl)indolin-1-yl)ethan-1-one]
10 to 100	–	O=C(Cc1cccnc1Cl)N1CCc2cc(-c3ccnc(NC4CCC(O)CC4)n3)cc(F)c21 (stereo not shown) [Example P3, 2-(2-chloropyridin-3-yl)-1-(7-fluoro-5-(2-((4-hydroxylcyclohexyl)amino)pyrimidin-4-yl)indolin-1-yl)ethan-1-one]
10 to 100	–	O=C(Cc1cccnc1Cl)N1CCc2cc(-c3ccnc(NC4CCC(O)C4)n3)cc(F)c21 (stereo not shown) [Example P4, 2-(2-chloropyridin-3-yl)-1-(7-fluoro-5-(2-((3-hydroxylcyclopentyl)amino)pyrimidin-4-yl)indolin-1-yl)ethan-1-one]
≤ 10	–	O=C(Cc1cccnc1Cl)N1CCc2cc(-c3ccnc(NC4CCOCC4)n3)cc(F)c21 [Example P5, 2-(2-chloropyridin-3-yl)-1-(7-fluoro-5-(2-((tetrahydro-2H-pyran-4-yl)amino)pyrimidin-4-yl)indolin-1-yl)ethan-1-one]
10 to 100	–	O=C(Cc1cccnc1Cl)N1CCc2cc(-c3ccnc(NC4CCOC4)n3)cc(F)c21 (stereo not shown) [Example P6, 2-(2-chloropyridin-3-yl)-1-(7-fluoro-5-(2-((tetrahydrofuran-3-yl)amino)pyrimidin-4-yl)indolin-1-yl)ethan-1-one]
10 to 100	–	CC(CCO)Nc1nccc(-c2cc(F)c3c(c2)CCN3C(=O)Cc2cccnc2Cl)n1 (stereo not shown) [Example P7, 2-(2-chloropyridin-3-yl)-1-(7-fluoro-5-(2-((4-hydroxylbutan-2-yl)amino)pyrimidin-4-yl)indolin-1-yl)ethan-1-one]
100 to 1000	–	CC(CO)Nc1cc(-c2cc(F)c3c(c2)CCN3C(=O)Cc2cccnc2Cl)ccn1 (stereo not shown) [Example P8, 2-(2-chloropyridin-3-yl)-1-(7-fluoro-5-(2-((1-hydroxylprop-2-yl)amino)pyridin-4-yl)indolin-1-yl)ethan-1-one]
≤ 10	6.1	Cn1nccc1Nc1nccc(-c2cc(F)c3c(c2)CCN3C(=O)Cc2cccnc2Cl)n1 [Example P10, 2-(2-chloropyridin-3-yl)-1-(7-fluoro-5-(2-((1-methyl-1H-pyrazol-5-yl)amino)pyrimidin-4-yl)indolin-1-yl)ethan-1-one]
10 to 100	–	Cn1nccc1Nc1nccc(-c2cc(Cl)c3c(c2)CCN3C(=O)Cc2cccnc2Cl)n1 [Example P11, 1-(7-chloro-5-(2-((1-methyl-1H-pyrazol-5-yl)amino)pyrimidin-4-yl)indolin-1-yl)-2-(2-chloropyridin-3-yl)ethan-1-one]
10 to 100	–	Cn1nccc1Nc1nccc(-c2cc(F)c3c(c2)CCN3C(=O)Cc2ccc(F)cc2F)n1 [Example P12, 2-(2,4-difluorophenyl)-1-(7-fluoro-5-(2-((1-methyl-1H-pyrazol-5-yl)amino)pyrimidin-4-yl)indolin-1-yl)ethan-1-one]
100 to 1000	–	Cc1cc(-c2ccnc(Nc3ccnn3C)n2)cc2c1N(C(=O)Cc1cccnc1Cl)CC2 [Example P13, 2-(2-chloropyridin-3-yl)-1-(7-methyl-5-(2-((1-methyl-1H-pyrazol-5-yl)amino)pyrimidin-4-yl)indolin-1-yl)ethan-1-one]
10 to 100	–	Cn1nccc1Nc1cc(-c2cc(Cl)c3c(c2)CCN3C(=O)Cc2cccnc2Cl)ccn1 [Example P14, 1-(7-chloro-5-(2-((1-methyl-1H-pyrazol-5-yl)amino)pyridin-4-yl)indolin-1-yl)-2-(2-chloropyridin-3-yl)ethan-1-one]
10 to 100	–	Cn1nccc1Nc1nccc(-c2cc(F)c3c(c2)CCN3C(=O)Cc2ccccc2F)n1 [Example P17, 1-(7-fluoro-5-(2-((1-methyl-1H-pyrazol-5-yl)amino)pyrimidin-4-yl)indolin-1-yl)-2-(2-fluorophenyl)ethan-1-one]
≤ 10	3	Cn1nccc1Nc1nccc(-c2cc(F)c3c(c2)CCN3C(=O)Cc2ccccc2Cl)n1 [Example P18, 2-(2-chlorophenyl)-1-(7-fluoro-5-(2-((1-methyl-1H-pyrazol-5-yl)amino)pyrimidin-4-yl)indolin-1-yl)ethan-1-one]
100 to 1000	–	Cn1nccc1Nc1nccc(-c2cc(F)c3c(c2)CCN3C(=O)Cc2ccc(Cl)cc2)n1 [Example P19, 2-(4-chlorophenyl)-1-(7-fluoro-5-(2-((1-methyl-1H-pyrazol-5-yl)amino)pyrimidin-4-yl)indolin-1-yl)ethan-1-one]
10 to 100	–	Cn1nccc1Nc1cc(-c2cc(F)c3c(c2)CCN3C(=O)Cc2ncccc2Cl)ccn1 [Example P28, 2-(3-chloropyridin-2-yl)-1-(7-fluoro-5-(2-((1-methyl-1H-pyrazol-5-yl)amino)pyridin-4-yl)indolin-1-yl)ethan-1-one]
10 to 100	–	Cn1nccc1Nc1cc(-c2cc(F)c3c(c2)CCN3C(=O)Cc2cccc(Cl)n2)ccn1 [Example P29, 2-(6-chloropyridin-2-yl)-1-(7-fluoro-5-(2-((1-methyl-1H-pyrazol-5-yl)amino)pyridin-4-yl)indolin-1-yl)ethan-1-one]
10 to 100	–	Cn1nccc1Nc1nccc(-c2cc(F)c3c(c2)CCN3C(=O)Cc2ccccc2C#N)n1 [Example P30, 2-(2-(7-fluoro-5-(2-((1-methyl-1H-pyrazol-5-yl)amino)pyrimidin-4-yl)indolin-1-yl)-2-oxoethyl)benzonitrile]
≤ 10	–	Cn1nccc1Nc1cc(-c2cc(F)c3c(c2)CCN3C(=O)Cc2ccccc2Cl)ccn1 [Example P31, 2-(2-chlorophenyl)-1-(7-fluoro-5-(2-((1-methyl-1H-pyrazol-5-yl)amino)pyridin-4-yl)indolin-1-yl)ethan-1-one]
≤ 10	–	CC1Cc2cc(-c3ccnc(Nc4ccnn4C)n3)cc(F)c2N1C(=O)Cc1cccnc1Cl (stereo not shown) [Example P32, 2-(2-chloropyridin-3-yl)-1-(7-fluoro-2-methyl-5-(2-((1-methyl-1H-pyrazol-5-yl)amino)pyrimidin-4-yl)indolin-1-yl)ethan-1-one]
10 to 100	–	Cn1nccc1Nc1nccc(-c2cc(F)c3c(c2)CCN3C(=O)Cc2c(F)ccnc2Cl)n1 [Example P33, 2-(2-chloro-4-fluoropyridin-3-yl)-1-(7-fluoro-5-(2-((1-methyl-1H-pyrazol-5-yl)amino)pyrimidin-4-yl)indolin-1-yl)ethan-1-one]
10 to 100	–	Cn1nccc1Nc1nccc(-c2cc(F)c3c(c2)CCN3C(=O)Cc2cc(Cl)ccc2F)n1 [Example P34, 2-(5-chloro-2-fluorophenyl)-1-(7-fluoro-5-(2-((1-methyl-1H-pyrazol-5-yl)amino)pyrimidin-4-yl)indolin-1-yl)ethan-1-one]
10 to 100	–	Cn1nc(CO)cc1Nc1cc(-c2cc(F)c3c(c2)CCN3C(=O)Cc2cccnc2Cl)ccn1 [Example P35, 2-(2-chloropyridin-3-yl)-1-(7-fluoro-5-(2-((3-(hydroxylmethyl)-1-methyl-1H-pyrazol-5-yl)amino)pyridin-4-yl)indolin-1-yl)ethan-1-one]
10 to 100	–	Cn1nccc1Nc1nccc(-c2cc(F)c3c(c2)CCN3C(=O)Cc2ccc(F)cc2Cl)n1 [Example P36, 2-(2-chloro-4-fluorophenyl)-1-(7-fluoro-5-(2-((1-methyl-1H-pyrazol-5-yl)amino)pyrimidin-4-yl)indolin-1-yl)ethan-1-one]
